According to patent US20260250318A1, “COMPOSITIONS AND METHODS FOR CROSSING THE BLOOD BRAIN BARRIER” (VOYAGER THERAPEUTICS, INC., priority 2022, published 2026):

Test system: brains, heart, liver, muscle, and DRG of the NHPs
Experiment: Maturation of TTM-001 and TTM-002 capsids, NGS enrichment in NHP tissues
Assay type: in vivo
From the text: This Example describes maturation of the AAV9 capsid variants, TTM-001 (SEQ ID NO: 981 (amino acid) and 983 (DNA), comprising SEQ ID NO: 941 (encoded by SEQ ID NO: 942)) and TTM-002 (SEQ ID NO: 982 (amino acid) and 984 (DNA), comprising SEQ ID NO: […] (encoded by SEQ ID NO: 944)) in NHPs to further enhance their transduction and biodistribution in the central nervous system as well as other tissues, and evolve the AAV capsid variants to provide further cross-species compatibility. Two approaches were used to mature the TTM-001 and TTM-002 capsid sequences in order to randomize and mutate within and around the peptide insert comprised within loop IV of the capsid variant. […] In the first maturation approach, sets of three contiguous amino acids were randomized across the mutagenesis region in the TTM-001 and TTM-002 sequences, which spanned from position 450 to position 466, numbered according to SEQ ID NO: 981 and 982. In the second maturation approach, mutagenic primers were used to introduce point mutations at a low frequency, scattered across the mutagenesis region in the TTM-001 and TTM-002 sequences ranging from position 449 to position 466, numbered according to SEQ ID NO: 981 and 982. AAV capsid variants arising from each maturation approach for TTM-001 and TTM-002 were pooled together, for subsequent testing and characterization in NHPs.
The library of pooled matured AAV capsid variants generated using the first maturation approach and the second maturation approach for the TTM-001 and TTM-002 AAV capsid variants were injected into two NHPs. […] Following RNA recovery and RT-PCR amplification, a systematic NGS enrichment analysis was performed to calculate the fold enrichment ratio relative to an AAV9 control, and the peptides comprised within the variants were identified.
Following the RNA recovery and NGS analysis from the second maturation approach, approximately 680,000 capsid variants were identified. The 680,000 matured capsid variants were then filtered based on samples with a raw virus count greater than 10 and a coefficient of variance (CV) of less than 1, which was calculated for each peptide across the brain samples taken from the two NHPs. […] Using this filtering criteria, this led to approximately 64,000 matured capsid variants.

[1] = NHP DRG, NGS, relative to AAV9 control
[2] = NHP brain, NGS, relative to AAV9 control
[3] = NHP heart, NGS, relative to AAV9 control
[4] = NHP liver DNA, NGS, relative to AAV9 control
[5] = NHP liver RNA, NGS, TTM-001 and TTM-002 matured AAV capsid variants, relative to AAV9 control
[6] = NHP muscle, NGS, relative to AAV9 control
[7] = NGS fold-enrichment, DRG, NHP, relative to AAV9
[8] = NGS fold-enrichment, brain, NHP, relative to AAV9
[9] = NGS fold-enrichment, heart, NHP, relative to AAV9
[10] = NGS fold-enrichment, liver DNA, NHP, relative to AAV9
[11] = NGS fold-enrichment, liver RNA, NHP, relative to AAV9
[12] = NGS fold-enrichment, muscle, NHP, relative to AAV9

KTINGSGSPHVPWQNQQT
Fold Enrichment relative to AAV9, DRG (NHP) [1]: 0.000 fold
Fold Enrichment relative to AAV9, Brain (NHP) [2]: 0.000 fold
Fold Enrichment relative to AAV9, Heart (NHP) [3]: 0.000 fold
Fold Enrichment relative to AAV9, Liver DNA (NHP) [4]: 3.435 fold
Fold Enrichment relative to AAV9, Liver RNA (NHP) [5]: 25.294 fold
Fold Enrichment relative to AAV9, Muscle (NHP) [6]: 0.000 fold

KTKLCSGSPHSKAQNQQT
Fold Enrichment relative to AAV9, DRG (NHP) [1]: 0.000 fold
Fold Enrichment relative to AAV9, Brain (NHP) [2]: 0.000 fold
Fold Enrichment relative to AAV9, Heart (NHP) [3]: 0.000 fold
Fold Enrichment relative to AAV9, Liver DNA (NHP) [4]: 2.139 fold
Fold Enrichment relative to AAV9, Liver RNA (NHP) [5]: 12.570 fold
Fold Enrichment relative to AAV9, Muscle (NHP) [6]: 0.000 fold

KTINGSGSPHSKRRAQQT
Fold Enrichment relative to AAV9, DRG (NHP) [1]: 0.000 fold
Fold Enrichment relative to AAV9, Brain (NHP) [2]: 0.000 fold
Fold Enrichment relative to AAV9, Heart (NHP) [3]: 0.000 fold
Fold Enrichment relative to AAV9, Liver DNA (NHP) [4]: 5.906 fold
Fold Enrichment relative to AAV9, Liver RNA (NHP) [5]: 26.523 fold
Fold Enrichment relative to AAV9, Muscle (NHP) [6]: 0.000 fold

KTINGSGSPHSKAQMQIT
Fold Enrichment relative to AAV9, DRG (NHP) [1]: 0.000 fold
Fold Enrichment relative to AAV9, Brain (NHP) [2]: 0.000 fold
Fold Enrichment relative to AAV9, Heart (NHP) [3]: 0.000 fold
Fold Enrichment relative to AAV9, Liver DNA (NHP) [4]: 0.371 fold
Fold Enrichment relative to AAV9, Liver RNA (NHP) [5]: 13.990 fold
Fold Enrichment relative to AAV9, Muscle (NHP) [6]: 0.000 fold

KTINGSGSPHWVPQNQQT
Fold Enrichment relative to AAV9, DRG (NHP) [1]: 0.000 fold
Fold Enrichment relative to AAV9, Brain (NHP) [2]: 0.000 fold
Fold Enrichment relative to AAV9, Heart (NHP) [3]: 0.000 fold
Fold Enrichment relative to AAV9, Liver DNA (NHP) [4]: 3.219 fold
Fold Enrichment relative to AAV9, Liver RNA (NHP) [5]: 22.907 fold
Fold Enrichment relative to AAV9, Muscle (NHP) [6]: 0.000 fold

KTINGSGSPHVNCQNQQT
Fold Enrichment relative to AAV9, DRG (NHP) [1]: 0.000 fold
Fold Enrichment relative to AAV9, Brain (NHP) [2]: 0.000 fold
Fold Enrichment relative to AAV9, Heart (NHP) [3]: 0.000 fold
Fold Enrichment relative to AAV9, Liver DNA (NHP) [4]: 6.122 fold
Fold Enrichment relative to AAV9, Liver RNA (NHP) [5]: 30.010 fold
Fold Enrichment relative to AAV9, Muscle (NHP) [6]: 0.000 fold

KTINGSISPHCPAQNQQT
Fold Enrichment relative to AAV9, DRG (NHP) [1]: 0.000 fold
Fold Enrichment relative to AAV9, Brain (NHP) [2]: 0.000 fold
Fold Enrichment relative to AAV9, Heart (NHP) [3]: 0.000 fold
Fold Enrichment relative to AAV9, Liver DNA (NHP) [4]: 0.556 fold
Fold Enrichment relative to AAV9, Liver RNA (NHP) [5]: 24.932 fold
Fold Enrichment relative to AAV9, Muscle (NHP) [6]: 0.000 fold

KTINGSGSPHSKCTSQQT
Fold Enrichment relative to AAV9, DRG (NHP) [7]: 0.232 fold
Fold Enrichment relative to AAV9, Brain (NHP) [8]: 0.493 fold
Fold Enrichment relative to AAV9, Heart (NHP) [9]: 1.413 fold
Fold Enrichment relative to AAV9, Liver DNA (NHP) [10]: 5.821 fold
Fold Enrichment relative to AAV9, Liver RNA (NHP) [11]: 10.311 fold
Fold Enrichment relative to AAV9, Muscle (NHP) [12]: 2.353 fold

KTINGSGSPHSFTCNQQT
Fold Enrichment relative to AAV9, DRG (NHP) [1]: 0.000 fold
Fold Enrichment relative to AAV9, Brain (NHP) [2]: 0.000 fold
Fold Enrichment relative to AAV9, Heart (NHP) [3]: 0.000 fold
Fold Enrichment relative to AAV9, Liver DNA (NHP) [4]: 2.155 fold
Fold Enrichment relative to AAV9, Liver RNA (NHP) [5]: 63.936 fold
Fold Enrichment relative to AAV9, Muscle (NHP) [6]: 271.289 fold

KTINGSGSPHSFPFNQQT
Fold Enrichment relative to AAV9, DRG (NHP) [1]: 0.000 fold
Fold Enrichment relative to AAV9, Brain (NHP) [2]: 0.000 fold
Fold Enrichment relative to AAV9, Heart (NHP) [3]: 0.000 fold
Fold Enrichment relative to AAV9, Liver DNA (NHP) [4]: 4.693 fold
Fold Enrichment relative to AAV9, Liver RNA (NHP) [5]: 38.584 fold
Fold Enrichment relative to AAV9, Muscle (NHP) [6]: 0.000 fold

KTIVGSGSPHSKPQNQQT
Fold Enrichment relative to AAV9, DRG (NHP) [7]: 0.000 fold
Fold Enrichment relative to AAV9, Brain (NHP) [8]: 0.000 fold
Fold Enrichment relative to AAV9, Heart (NHP) [9]: 0.000 fold
Fold Enrichment relative to AAV9, Liver DNA (NHP) [10]: 0.894 fold
Fold Enrichment relative to AAV9, Liver RNA (NHP) [11]: 10.381 fold
Fold Enrichment relative to AAV9, Muscle (NHP) [12]: 0.000 fold

KTINGSGSPHSLCLNQQT
Fold Enrichment relative to AAV9, DRG (NHP) [1]: 0.000 fold
Fold Enrichment relative to AAV9, Brain (NHP) [2]: 0.000 fold
Fold Enrichment relative to AAV9, Heart (NHP) [3]: 0.000 fold
Fold Enrichment relative to AAV9, Liver DNA (NHP) [4]: 1.790 fold
Fold Enrichment relative to AAV9, Liver RNA (NHP) [5]: 17.028 fold
Fold Enrichment relative to AAV9, Muscle (NHP) [6]: 0.000 fold

KTISGHDSPHISGQYQQT
Fold Enrichment relative to AAV9, DRG (NHP) [1]: 0.000 fold
Fold Enrichment relative to AAV9, Brain (NHP) [2]: 0.000 fold
Fold Enrichment relative to AAV9, Heart (NHP) [3]: 0.074 fold
Fold Enrichment relative to AAV9, Liver DNA (NHP) [4]: 0.420 fold
Fold Enrichment relative to AAV9, Liver RNA (NHP) [5]: 12.395 fold
Fold Enrichment relative to AAV9, Muscle (NHP) [6]: 1214.588 fold

KTINGSGSPHSKACISQT
Fold Enrichment relative to AAV9, DRG (NHP) [1]: 0.000 fold
Fold Enrichment relative to AAV9, Brain (NHP) [2]: 0.000 fold
Fold Enrichment relative to AAV9, Heart (NHP) [3]: 0.000 fold
Fold Enrichment relative to AAV9, Liver DNA (NHP) [4]: 0.240 fold
Fold Enrichment relative to AAV9, Liver RNA (NHP) [5]: 17.371 fold
Fold Enrichment relative to AAV9, Muscle (NHP) [6]: 0.000 fold

KTINGSGSPHSKYFMQQT
Fold Enrichment relative to AAV9, DRG (NHP) [1]: 0.000 fold
Fold Enrichment relative to AAV9, Brain (NHP) [2]: 0.000 fold
Fold Enrichment relative to AAV9, Heart (NHP) [3]: 0.000 fold
Fold Enrichment relative to AAV9, Liver DNA (NHP) [4]: 2.993 fold
Fold Enrichment relative to AAV9, Liver RNA (NHP) [5]: 57.350 fold
Fold Enrichment relative to AAV9, Muscle (NHP) [6]: 0.000 fold

KTINCRTSPHSKAQNQQT
Fold Enrichment relative to AAV9, DRG (NHP) [1]: 0.000 fold
Fold Enrichment relative to AAV9, Brain (NHP) [2]: 0.000 fold
Fold Enrichment relative to AAV9, Heart (NHP) [3]: 0.000 fold
Fold Enrichment relative to AAV9, Liver DNA (NHP) [4]: 1.117 fold
Fold Enrichment relative to AAV9, Liver RNA (NHP) [5]: 28.301 fold
Fold Enrichment relative to AAV9, Muscle (NHP) [6]: 0.000 fold

KTICGRGSPHSKAQNQQT
Fold Enrichment relative to AAV9, DRG (NHP) [1]: 0.000 fold
Fold Enrichment relative to AAV9, Brain (NHP) [2]: 0.000 fold
Fold Enrichment relative to AAV9, Heart (NHP) [3]: 0.000 fold
Fold Enrichment relative to AAV9, Liver DNA (NHP) [4]: 2.171 fold
Fold Enrichment relative to AAV9, Liver RNA (NHP) [5]: 18.923 fold
Fold Enrichment relative to AAV9, Muscle (NHP) [6]: 0.000 fold

KTINLGCSPHSKAQNQQT
Fold Enrichment relative to AAV9, DRG (NHP) [1]: 0.000 fold
Fold Enrichment relative to AAV9, Brain (NHP) [2]: 0.000 fold
Fold Enrichment relative to AAV9, Heart (NHP) [3]: 0.000 fold
Fold Enrichment relative to AAV9, Liver DNA (NHP) [4]: 0.654 fold
Fold Enrichment relative to AAV9, Liver RNA (NHP) [5]: 12.564 fold
Fold Enrichment relative to AAV9, Muscle (NHP) [6]: 0.000 fold

KRFSGSGSPHSKAQNQQT
Fold Enrichment relative to AAV9, DRG (NHP) [1]: 0.000 fold
Fold Enrichment relative to AAV9, Brain (NHP) [2]: 0.000 fold
Fold Enrichment relative to AAV9, Heart (NHP) [3]: 0.000 fold
Fold Enrichment relative to AAV9, Liver DNA (NHP) [4]: 1.358 fold
Fold Enrichment relative to AAV9, Liver RNA (NHP) [5]: 11.024 fold
Fold Enrichment relative to AAV9, Muscle (NHP) [6]: 0.000 fold

KTINGSGSPHSKLKRQQT
Fold Enrichment relative to AAV9, DRG (NHP) [1]: 0.000 fold
Fold Enrichment relative to AAV9, Brain (NHP) [2]: 0.000 fold
Fold Enrichment relative to AAV9, Heart (NHP) [3]: 0.000 fold
Fold Enrichment relative to AAV9, Liver DNA (NHP) [4]: 6.884 fold
Fold Enrichment relative to AAV9, Liver RNA (NHP) [5]: 76.103 fold
Fold Enrichment relative to AAV9, Muscle (NHP) [6]: 0.000 fold
